Source: patent US9528993B2, “Agents and methods related to screening for resistance to DR5 and reducing resistance to DR5 agonists” (The UAB Research Foundation, priority 2005, dated 2016)
{Fl} = fluorescein label

Columns and labels:
[1] = test system: human breast cancer cell line, MDA-231; experiment: Cytotoxicity analysis (ATPLITE cell viability), MDA-231; type: cell-based; settings: for TRA-8-mediated apoptosis of induced resistant cells in presence of chemotherapeutic agent: MDA-231 resistant cells, 0.1 μM taxol, 1 μM Adriamycin, 100 μM cisplatin or 5 μM BisVIII
Description: (§1) Cells (1,000 cells per well) were seeded into 96-well plate in triplicate with eight concentrations (double serial dilutions from 1000 ng/ml) of TRA-8, 2E12, or TRAIL. Cell viability was determined after overnight culture using ATPLITE assay according to the manufacture's instructions (Packard Instruments, Meriden, Conn.). The results are presented as the precentage of viable cells in treated wells compared to medium control wells.
(§2) Cells (5×10^5/ml) were incubated with a starting dose of 1 ng/ml TRA-8 for two days. Cells were split with fresh medium and incubated with a double dose of TRA-8 every two days until TRA-8 dose reached 2,000 ng/ml. At each treatment cycle, the cell viability of non-induced (parental) and induced cells treated with an inducing dose of TRA-8 was determined by ATPLITE assay.

[2] = test system: human ovarian cancer cell line, UL-3C; experiment: Cytotoxicity analysis (ATPLITE cell viability), UL-3C; type: cell-based; settings: for TRA-8-mediated apoptosis of induced resistant cells in presence of chemotherapeutic agent: UL-3C resistant cells, 0.1 μM taxol, 1 μM Adriamycin, 100 μM cisplatin or 5 μM BisVIII
Description: as §1, §2

[3] = test system: GSK-3; settings: cited from earlier work
[4] = test system: caspase activation and PARP cleavage in MDA231 cells; experiment: Western blot of caspase cascade activation in MDA231 cells; type: cell-based, human; settings: MDA-231 resistant cells, single agent alone at 4 hours (1,000 ng/ml TRA-8 or 1 μM Adriamycin)
Description: Tumor cells (3×10^6) were washed twice with cold PBS and lysed with 300 μl lysis buffer containing 10 mM Tris-HCl (pH 7.6), 150 mM NaCl, 0.5 mM EDTA, 1 mM EGTA, 0.1% SDS, 1 mM sodium orthovanadate, and a mixture of protease inhibitors (1 mM phenylmethylsulfonyl fluoride, 1 μg/ml pepstatin A, 2 μg/ml aprotinin). Lysates were sonicated for 10 seconds, and centrifuged for 20 minutes at 12,000 g. The cell lysates with equal amount of total proteins were boiled for 5 minutes with SDS-PAGE sample buffer. Total cell lysates were separated in 8%, 10%, or 12% SDS-PAGE, and electrophoretically transferred to nitrocellulose membrane. The blots were blocked with 5% nonfat dry milk in TBST buffer (20 mM Tris-HCl (pH 7.4), 500 mM NaCl, and 0.1% Tween 20) and incubated with primary antibody in blocking buffer at 4° C. overnight. The blots were washed three times with TBST and probed with HRP-conjugated secondary antibodies for one hour at room temperature. After washing four times with TBST, the probed proteins were visualized using the ECL Western blotting detection system (Amersham Biosciences, Piscataway, N.J.) according to the manufacturer's instructions.

[5] = test system: panel of tumor cells; experiment: TRA-8-induced apoptosis in panel of tumor cells after DDX3 sRNAi oligo (ATPLite); type: cell-based; settings: including some spontaneous resistant cells; various concentrations of TRA-8 overnight
Description: as §1, with “Cytotoxicity analysis of tumor cell susceptibility to TRA-8, 2E12, and TRAIL-mediated apoptosis. Cells” for “Cells”, “plates” for “plate”, “an ATPLITE™” for “ATPLITE”, “manufacturer's” for “manufacture's”
(§3) They were then cloned into the BLOCK-iT U6 entry vector. The shRNA is driven by the U6 promoter and can be transiently expressed in most dividing or nondividing mammalian cell types. Resistant cells were transfected with RNAi used LIPOFECTAMINE 2000 (Invitrogen) for the RNAi response. The decreased DDX3 expression was determined by Western blot analysis using anti-DDX3 antibody 36 hours after transfection. Once decreased DDX3 expression was achieved, the siRNA oligo was synthesized (Target sequence: […] (SEQ ID NO:27): Sense RNA 5′-Fl-[…] (Fl-SEQ ID NO:27) (Fl=fluorescein); Anti-senseRNA 5′-[…]-3′ (SEQ ID NO:28), and RNAi control oligo (RI-010-DP) was purchased from Molecula (Columbia, Md.).

[6] = test system: DDX3 in panel of tumor cells; experiment: DDX3 expression in panel of tumor cells after DDX3 sRNAi oligo (Western blot); type: cell-based; settings: 48 hours after transfection
Source text: as §3, with “The decreased DDX3 expression was determined by Western blot analysis using anti-DDX3 antibody 36 hours after transfection.” left out

[7] = test system: GSK-3; settings: cited from earlier work; remark: listed apart in the source
[8] = test system: Cdk1/B; settings: cited from earlier work
[9] = target: Cdk5/p35 (Homo sapiens, UniProt Q00535); settings: cited from earlier work
Chain of Cdk5/p35 (Q00535 whole entry, species assumed): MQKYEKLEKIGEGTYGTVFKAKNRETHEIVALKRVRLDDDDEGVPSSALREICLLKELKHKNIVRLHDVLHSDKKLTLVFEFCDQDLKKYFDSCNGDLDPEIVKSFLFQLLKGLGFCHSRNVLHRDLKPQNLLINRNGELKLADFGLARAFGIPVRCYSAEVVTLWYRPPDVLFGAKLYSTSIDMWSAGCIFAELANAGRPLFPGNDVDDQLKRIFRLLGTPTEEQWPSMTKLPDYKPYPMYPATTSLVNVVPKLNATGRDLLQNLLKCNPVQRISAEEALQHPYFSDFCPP
Chain of Cdk5/p35 (Q15078 whole entry partner, species assumed): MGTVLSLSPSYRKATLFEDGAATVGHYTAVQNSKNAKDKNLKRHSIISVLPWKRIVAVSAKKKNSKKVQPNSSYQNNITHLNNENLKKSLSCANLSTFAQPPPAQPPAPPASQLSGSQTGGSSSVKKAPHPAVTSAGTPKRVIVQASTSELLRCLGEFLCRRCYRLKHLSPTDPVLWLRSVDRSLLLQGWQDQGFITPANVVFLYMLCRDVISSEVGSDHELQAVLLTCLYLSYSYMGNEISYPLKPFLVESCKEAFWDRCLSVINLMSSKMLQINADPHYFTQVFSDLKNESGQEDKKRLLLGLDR

Cn1cc(C2=C(c3cn(CCCN)c4ccccc34)C(=O)NC2=O)c2ccccc21 [Bisindolymaleimide VIII]
TRA-8-mediated apoptosis of induced resistant cells in presence of chemotherapeutic agent [1]: TRA-8 dose-dependent response was restored | TRA-8-mediated apoptosis of induced resistant cells in presence of chemotherapeutic agent [2]: TRA-8 dose-dependent response was restored

insulin: comparator for decrease of GSK-3 activity
decrease of GSK-3 activity [3]: approximately 50%

COc1cccc2c1C(=O)c1c(O)c3c(c(O)c1C2=O)C[C@@](O)(C(=O)CO)C[C@@H]3O[C@H]1C[C@H](N)[C@H](O)[C@H](C)O1 [Adriamycin]
activation of caspases 2, 3, 8, 9 [4]: did not induce any significant activation | TRA-8-mediated apoptosis of induced resistant cells in presence of chemotherapeutic agent [1]: TRA-8 dose-dependent response was restored | TRA-8-mediated apoptosis of induced resistant cells in presence of chemotherapeutic agent [2]: TRA-8 dose-dependent response was restored

DDX3 RNAi: synthesized siRNA oligo, target sequence GGAGAAATTATCATGGGAAAC (SEQ ID NO:27), antisense SEQ ID NO:28 (sense GGAGAAAUUAUCAUGGGAAAC; antisense GUUUCCCAUGAUAAUUUCUCC; sense: RNA, 5' {Fl}, backbone not given here; antisense: RNA, backbone not given here)
TRA-8-induced apoptosis [5]: enhanced the TRA8-induced apoptosis | amount of endogenous DDX3 [6]: reduced the amount of endogenous DDX3

Cn1cc(C2=C(c3ccc(Cl)cc3Cl)C(=O)NC2=O)c2ccccc21 [SB216763]
inhibition of GSK-3 [7]: potent

[Be+2] [Beryllium ions]
inhibition of GSK-3 [7]: micromolar range

CC(C)NCC(O)c1ccc(O)c(O)c1 (stereo not shown) [Isoproterenol]
decrease of GSK-3 activity [3]: approximately 50%

CCCCc1c(-c2ccc(OC)cc2)[nH]c2nccnc12 [Aloisine, 7-n-Butyl-6-(4-methoxyphenyl)[5H]pyrrolo[2,3-b]pyrazine]
IC50 [8]: 700 nM | IC50 [7]: 920 nM | IC50 [9]: 1500 nM

N.N.[Cl][Pt][Cl] [Cisplatin]
TRA-8-mediated apoptosis of induced resistant cells in presence of chemotherapeutic agent [1]: TRA-8 dose-dependent response was restored | TRA-8-mediated apoptosis of induced resistant cells in presence of chemotherapeutic agent [2]: TRA-8 dose-dependent response was restored

CC(=O)O[C@H]1C(=O)[C@@]2(C)[C@H]([C@H](OC(=O)c3ccccc3)[C@]3(O)C[C@H](OC(=O)[C@H](O)[C@@H](NC(=O)c4ccccc4)c4ccccc4)C(C)=C1C3(C)C)[C@]1(OC(C)=O)CO[C@@H]1C[C@@H]2O [Taxol]
TRA-8-mediated apoptosis of induced resistant cells in presence of chemotherapeutic agent [1]: TRA-8 dose-dependent response was restored | TRA-8-mediated apoptosis of induced resistant cells in presence of chemotherapeutic agent [2]: TRA-8 dose-dependent response was restored

TRAIL: Recombinant soluble TRAIL purchased from Alexis Biochemicals
susceptibility of TRA-8 resistant cells to induced apoptosis ([1]; MDA-231R cells vs parental): still susceptible | susceptibility to apoptosis, in vitro cytotoxicity assay ([1]; parental MDA-231 cells): susceptible to apoptosis | susceptibility of TRA-8 resistant cells to induced apoptosis ([2]; UL-3CR cells vs parental): still susceptible | susceptibility to apoptosis, in vitro cytotoxicity assay ([2]; parental UL-3C cells): susceptible to apoptosis
